Some results are limits rather than exact numbers.

The text below walks through data of patent US20180148418A1, “AMIDO-SUBSTITUTED CYCLOHEXANE DERIVATIVES” (Bayer Pharma Aktiengesellschaft, priority 2015, published 2018).

In experiment [1] the test system is HEK293 cells cotransfected with the FOP control vector. The experiment in a line: HEK293 FOP assay (control reporter with non-functional TCF elements). It is filed as cell-based. The conditions noted are these: Homo sapiens, 16 hours. Summed up:
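Compound series from 50 μM down to 15 nM, prediluted in DMSO then 50-fold into CAFTY buffer (pH 7.4, 2 mM Ca2+, 0.01% BSA), tested alongside TOP cells on a Geneticin-selected HEK293 FOP line whose TCF elements are replaced by a random sequence; recombinant human Wnt-3a applied at 2500-5 ng/ml.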

For the next experiment, the target named is T1, TNKS2 (Homo sapiens, UniProt Q9H2K2).
T1 construct: purchased BPS Bioscience, San Diego, USA 80572 (TNKS2 Histone Ribosylation Assay Kit)
T1 sequence (Q9H2K2 1-1166): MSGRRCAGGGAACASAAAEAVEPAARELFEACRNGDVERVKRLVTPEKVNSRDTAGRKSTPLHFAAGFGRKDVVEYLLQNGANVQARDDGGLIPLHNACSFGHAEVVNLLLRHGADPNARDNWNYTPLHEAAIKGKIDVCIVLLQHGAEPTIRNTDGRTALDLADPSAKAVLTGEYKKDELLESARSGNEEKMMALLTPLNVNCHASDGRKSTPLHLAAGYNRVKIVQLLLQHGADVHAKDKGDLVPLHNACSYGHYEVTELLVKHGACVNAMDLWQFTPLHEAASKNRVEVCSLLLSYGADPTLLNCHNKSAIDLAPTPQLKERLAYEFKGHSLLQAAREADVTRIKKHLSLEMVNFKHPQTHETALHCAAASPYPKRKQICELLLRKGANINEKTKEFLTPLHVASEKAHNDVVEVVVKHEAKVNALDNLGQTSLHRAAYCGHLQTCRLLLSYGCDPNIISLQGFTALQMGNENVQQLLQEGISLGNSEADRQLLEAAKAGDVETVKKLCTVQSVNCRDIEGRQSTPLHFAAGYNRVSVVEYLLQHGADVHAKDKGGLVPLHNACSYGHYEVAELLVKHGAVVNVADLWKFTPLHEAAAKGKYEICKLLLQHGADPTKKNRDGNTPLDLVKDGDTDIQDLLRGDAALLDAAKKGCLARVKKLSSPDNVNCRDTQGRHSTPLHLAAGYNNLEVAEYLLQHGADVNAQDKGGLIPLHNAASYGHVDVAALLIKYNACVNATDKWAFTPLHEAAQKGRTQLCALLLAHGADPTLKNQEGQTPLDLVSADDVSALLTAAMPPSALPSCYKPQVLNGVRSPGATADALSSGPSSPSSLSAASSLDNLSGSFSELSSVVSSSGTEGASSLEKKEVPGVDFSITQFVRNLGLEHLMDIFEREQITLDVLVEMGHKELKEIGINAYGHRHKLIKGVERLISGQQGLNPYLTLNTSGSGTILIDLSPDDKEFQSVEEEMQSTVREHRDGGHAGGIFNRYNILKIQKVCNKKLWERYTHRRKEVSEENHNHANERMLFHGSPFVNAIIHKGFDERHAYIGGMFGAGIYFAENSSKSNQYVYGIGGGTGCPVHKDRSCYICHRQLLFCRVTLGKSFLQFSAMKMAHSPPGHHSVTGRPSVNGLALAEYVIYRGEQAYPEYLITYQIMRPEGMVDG
The experiment in a line: TNKS2 Assay B (auto-parsylation, [3H]-NAD+ SPA). The experiment is classed as biochemical. Particulars: 6 nM TNKS2, auto-parsylation, over night at room temperature.

Experiment [2] relates to wildtype Wnt signaling cascade. The experiment in a line: HEK293 TOP assay (Super TopFlash luciferase reporter, Wnt-3a stimulated). The conditions noted are these: Homo sapiens, HEK293, 16 h, HEK293 TOP reporter cells, Wnt3a at EC50, 16 hours. It is filed as cell-based. Summed up:
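Compound series (50 μM down to 15 nM, 3.16-fold) diluted from DMSO 50-fold into CAFTY buffer, pH 7.4, 2 mM Ca^2+, 0.01% BSA, applied to Wnt-3a-stimulated HEK293 TopFlash and FOP reporter lines in parallel. Cells seeded 10000/well 24 h before; luciferase signal measured.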

Take `CNC(=O)c1[nH]cnc1C(=O)N[C@@H]1CC[C@@H](C(=O)Nc2ccc(F)cc2Cl)C[C@@H]1F` (racemic) [Example 31, N^4-{(1α,2α,4β)-4-[(2-chloro-4-fluorophenyl)carbamoyl]-2-fluorocyclohexyl}-N^5-methyl-1H-imidazole-4,5-dicarboxamide]: the results for the IC50 (in experiment [1]; at TNKS2; in experiment [2]) were at least 50000 nM, 120 nM and 250 nM, respectively.

On to `CNC(=O)c1[nH]cnc1C(=O)N[C@@H]1CC[C@@H](C(=O)Nc2ccc(F)cc2Cl)C[C@H]1OC` (racemic) [Example 35, N^4-{(1α,2β,4β)-4-[(2-chloro-4-fluorophenyl)carbamoyl]-2-methoxycyclohexyl}-N^5-methyl-1H-imidazole-4,5-dicarboxamide], for which the IC50 (usually the concentration that inhibits the measured activity by half) in experiment [1] is at least 50000 nM; on TNKS2, over 10000 nM; in experiment [2], 17000 nM.

In the case of `CNC(=O)c1[nH]cnc1C(=O)N[C@H]1CC[C@H](C(=O)Nc2ccc(F)cc2Cl)CC1(F)F` (single isomer, unassigned) [Example 33, N^4-{(trans)-4-[(2-chloro-4-fluorophenyl)carbamoyl]-2,2-difluorocyclohexyl}-N^5-methyl-1H-imidazole-4,5-dicarboxamide], the half-maximal inhibitory concentration (IC50) in experiment [1] was at least 50000 nM; on TNKS2, 380 nM; in experiment [2], 700 nM.

As for `CNC(=O)c1[nH]cnc1C(=O)NC1CCC(C(=O)Nc2ccc(F)cc2Cl)CC1C` (single isomer, unassigned) [Example 41, N^4-{4-[(2-chloro-4-fluorophenyl)carbamoyl]-2-methylcyclohexyl}-N^5-methyl-1H-imidazole-4,5-dicarboxamide], the results for the IC50 (in experiment [1]; on TNKS2; in experiment [2]) were at least 50000 nM, over 10000 nM and 21000 nM, respectively.

`O=C(NC1CCC(F)(C(=O)Nc2ccc(F)cc2Cl)CC1)c1cnn2cccnc12` (single isomer, unassigned) [Example 365, N-{4-[(2-chloro-4-fluorophenyl)carbamoyl]-4-fluorocyclohexyl}pyrazolo[1,5-a]pyrimidine-3-carboxamide (single isomer)]: the IC50 was 35000 nM in experiment [1], over 10000 nM against TNKS2 and 21000 nM in experiment [2].

Turning to `CNC(=O)c1[nH]cnc1C(=O)NC1CCC(F)(C(=O)Nc2ccc(F)cc2Cl)CC1` (single isomer, unassigned) [Example 366, N^4-{4-[(2-chloro-4-fluorophenyl)carbamoyl]-4-fluorocyclohexyl}-N^5-methyl-1H-imidazole-4,5-dicarboxamide (single isomer)], the IC50 is at least 50000 nM in experiment [1], over 10000 nM against TNKS2 and 25000 nM in experiment [2].

For `CNC(=O)c1[nH]cnc1C(=O)N[C@@H]1CC[C@@H](C(=O)Nc2ccc(F)cc2Cl)CC1(F)F` (stereo in doubt) [Example 32, N^4-{(trans)-4-[(2-chloro-4-fluorophenyl)carbamoyl]-2,2-difluorocyclohexyl}-N^5-methyl-1H-imidazole-4,5-dicarboxamide], the half-maximal inhibitory concentration (IC50) in experiment [1] was at least 50000 nM; against TNKS2, 280 nM; in experiment [2], 270 nM.

Take `O=C(NCC1CCCO1)c1nc[nH]c1C(=O)N[C@H]1CC[C@H](C(=O)Nc2c(F)cc(F)cc2Cl)CC1` (stereo in doubt) [Example 71, N^5-{trans-4-[(2-chloro-4,6-difluorophenyl)carbamoyl]cyclohexyl}-N^4-[(2R)-tetrahydrofuran-2-ylmethyl]-1H-imidazole-4,5-dicarboxamide]: the values for the IC50 (in experiment [1]; against TNKS2; in experiment [2]) were 23000 nM, 66 nM and 100 nM, respectively.

As to `CNC(=O)c1nc[nH]c1C(=O)N[C@H]1CC[C@H](C(=O)Nc2ccc(F)cc2Cl)CC1` [Example 1, N^5-{trans-4-[(2-chloro-4-fluorophenyl)carbamoyl]cyclohexyl}-N^4-methyl-1H-imidazole-4,5-dicarboxamide], the IC50 in experiment [1] was at least 50000 nM; at TNKS2, 72 nM; in experiment [2], 52 nM.

Turning to `O=C(N[C@H]1CC[C@H](C(=O)Nc2ccc(F)cc2Cl)CC1)c1[nH]cnc1C(=O)N1CC2(CCS2(=O)=O)C1` [Example 22, N-{trans-4-[(2-chloro-4-fluorophenyl)carbamoyl]cyclohexyl}-4-[(1,1-dioxido-1-thia-6-azaspiro[3.3]hept-6-yl)carbonyl]-1H-imidazole-5-carboxamide], the IC50 in experiment [1] was at least 50000 nM; at TNKS2 it was 5.3 nM; in experiment [2] it was 24 nM.

For the molecule `O=C(N[C@H]1CC[C@H](C(=O)Nc2ccc(F)cc2Cl)CC1)c1[nH]cnc1C(=O)N1CCC1` [Example 23, 4-(azetidin-1-ylcarbonyl)-N-{trans-4-[(2-chloro-4-fluorophenyl)carbamoyl]cyclohexyl}-1H-imidazole-5-carboxamide], the IC50 in experiment [1] is at least 50000 nM; against TNKS2, 25 nM; in experiment [2], 110 nM.

For `COC1CN(C(=O)c2nc[nH]c2C(=O)N[C@H]2CC[C@H](C(=O)Nc3ccc(F)cc3Cl)CC2)C1` [Example 24, 4 N-{trans-4-[(2-chloro-4-fluorophenyl)carbamoyl]cyclohexyl}-4-[(3-methoxyazetidin-1-yl)carbonyl]-1H-imidazole-5-carboxamide], the figures for the IC50 (in experiment [1]; on TNKS2; in experiment [2]) were at least 50000 nM, 17 nM and 86 nM, respectively.

Turning to `O=C(NCCN1CC2(CCO2)C1)c1nc[nH]c1C(=O)N[C@H]1CC[C@H](C(=O)Nc2ccc(F)cc2Cl)CC1` [Example 25, N^5-{trans-4-[(2-chloro-4-fluorophenyl)carbamoyl]cyclohexyl}-N^4-[2-(1-oxa-6-azaspiro[3.3]hept-6-yl)ethyl]-1H-imidazole-4,5-dicarboxamide], the IC50 in experiment [1] was at least 50000 nM; on TNKS2 it was 11 nM; in experiment [2], 63 nM.

With `CN(C)C1CN(C(=O)c2nc[nH]c2C(=O)N[C@H]2CC[C@H](C(=O)Nc3ccc(F)cc3Cl)CC2)C1` [Example 26, N-{trans-4-[(2-chloro-4-fluorophenyl)carbamoyl]cyclohexyl}-4-{[3-(dimethylamino)azetidin-1-yl]carbonyl}-1H-imidazole-5-carboxamide], the IC50 is at least 50000 nM in experiment [1], 80 nM against TNKS2 and 140 nM in experiment [2].

On to `CNC(=O)c1nc[nH]c1C(=O)N[C@H]1CC[C@H](C(=O)Nc2c(Br)cc(F)c(F)c2F)CC1` [Example 27, N^5-{trans-4-[(6-bromo-2,3,4-trifluorophenyl)carbamoyl]cyclohexyl}-N^4-methyl-1H-imidazole-4,5-dicarboxamide], for which the values for the IC50 (in experiment [1]; at TNKS2; in experiment [2]) were at least 50000 nM, 19 nM and 35 nM, respectively.

Take `CNC(=O)c1nc[nH]c1C(=O)N[C@H]1CC[C@H](C(=O)Nc2c(F)cc(F)cc2Br)CC1` [Example 28, N^5-{trans-4-[(6-bromo-2,4-difluorophenyl)carbamoyl]cyclohexyl}-N^4-methyl-1H-imidazole-4,5-dicarboxamide]: the results for the concentration for half-maximal inhibition (IC50) (in experiment [1]; against TNKS2; in experiment [2]) were at least 50000 nM, 26 nM and 24 nM, respectively.

In the case of `CNC(=O)c1ncoc1C(=O)N[C@H]1CC[C@H](C(=O)Nc2ccc(F)cc2Cl)CC1` [Example 29, N^5-{trans-4-[(2-chloro-4-fluorophenyl)carbamoyl]cyclohexyl}-N^4-methyl-1,3-oxazole-4,5-dicarboxamide], the IC50 in experiment [1] is at least 50000 nM; on TNKS2 it was 590 nM; in experiment [2] it was 930 nM.

With `CNC(=O)c1ocnc1C(=O)N[C@H]1CC[C@H](C(=O)Nc2ccc(F)cc2Cl)CC1` [Example 30], the half-inhibitory concentration (IC50) was 40000 nM in experiment [1], over 10000 nM against TNKS2 and 44000 nM in experiment [2].
